According to patent US7645882B2, “Inhibitor of protein modification products formation” (priority 2003, dated 2010):

Tests used:
[1] = tested on: pentosidine; assay: Pentosidine formation inhibiting effect in plasma of hemodialysis patients; format: biochemical, human; conditions: plasma from hemodialysis patients, final concentration 0.8, 2.0, 5.0 mM, 37° C. for one week; compared to pyridoxamine as positive control
Description: Fresh heparinized plasma samples were obtained after informed consent from hemodialysis patients prior to the dialysis session, and filtrated and sterilized. To the plasma (450 μL), there was added the solution of TM-2002 in dimethylsurphoxide (50 μL) (final concentration: 0.8, 2.0, 5.0 mM) incubated at 37° C. for one week. Then, the amount of pentosidine was measured.
Measurement of the amount of pentosidine was made as follows: to each incubated sample (50 μL) was added an equal volume of 10% trichloroacetic acid, followed by centrifugation at 5000 g for 5 minutes; after removal of the supernatant, the pellet was washed by 5% trichloroacetic acid (300 μL); the pellet was dried under reduced pressure and then subjected to hydrolysis in 6N HCl solution (100 μL) at 110° C. under nitrogen atmosphere for 16 hours; to the hydrolysate, 5N NaOH (100 μL) and 0.5 M phosphate buffer (pH 7.4) (200 μL) were added, followed by filtration through a porefilter with a pore size of 0.5 μm and dilution with PBS. The concentration of free pentosidine was determined by reversed-phase HPLC using a fluorescence detector (Miyata, T. et al.: Proc. Natl. Acad. Sci. USA, Vol. 93, p. 2353-2358, 1996). The effluent was monitored at 335/385 nm of excitation/emission wavelength. Synthetic pentosidine was used as the standard. The detection limit of pentosidine was 0.1 pmol/mg protein. […]

[2] = tested on: ischemia-reperfusion renal failure model rat; assay: Renal protective effect on ischemia-reperfusion renal failure model rat; format: in vivo; conditions: 50 mg/kg twice daily by sonde, 2 days
Description: This condition model is typical acute renal failure model. To prepare the model, operated on wistar rats (male, body weight 150 g, 6 weeks aged) to remove right kidney, and on the following day, renal artery of remaining left kidney was apply a ligature with clip under general anesthesia. […] After preparing the ischemia-reperfusion model, test compound (TM-2002, 50 mg/kg body weight, twice a daily) was suspended in 0.5% carboxymethylcellulose. The suspension was coercively administered 2 days continuously using sonde, on third day kidney was obtained, and analysed pathologically (renal tubular stromal disorder score). In particular, the kidney was stained by PAS according to conventional method and the renal tubular stromal disorder was estimated for the presence or absence of renal tubular necrosis, renal tubular hypertrophy, renal tubular atrophia, renal tubular basal lamina thickening and cast in the sustained image of kidney. As well as biochemical analysis of blood was carried out (contract clinical analysis organization: SRL).

[3] = tested on: middle cerebral artery ischemia-reperfusion model; assay: Cerebroprotective action in middle cerebral artery ischemia-reperfusion model; format: in vivo, rat
Description: CD(SD)IGS male rats (Japan Charles river Kabushiki kaisha, Hino farm, room No. 22, specific product) (8 rats per one group) having body weight 270 to 350 g were anesthetized by 2% isoflurane (mixed bas comprising of 70% N2O (laughter gas) and 30% O2) to immobilize, and then the rats were put on warming plate to keep the rectal and brain temperature 37 to 38° C. After that, to observe the stability in the examination, cannula which was made by polyethylene (PE-50, Becton Dickinson) was inserted and left in caudal artery of said animal, and this made blood drawing and blood pressure determining to monitor the biochemical parameter such as blood sugar level, hematocrit, CO2 concentration, oxygen partial pressure, pH, blood pressure and etc. In addition, cerebral blood flow in cortex was determined by laser doppler fluorometry (Neuroscience.inc: OMEGA FLOW (FLO-C1)), putting the detection site directly on cranium on the point left 4 mm from bregma. Left neck of such animal was incised, and from internal and external carotid fork of common carotid artery to upstream of internal carotid, nylon surgical thread (length 16 mm, diameter 0.2 to 0.3 mm, with silicon coating on its tip 3 mm) was passed and left, middle cerebral artery was obstructed for 2 hours. After that, the thread was removed to release the middle cerebral artery, and blood was reperfused for 21 hours. To each animals, 3.0 mg/kg of edaravone (control) and 5.58 mg/kg of TM-2002 were respectively administered twice by cannula which is left in caudal artery 5 minutes and 5 hours after middle cerebral artery occlusion. After said operation, the brain was removed from said animal, and after preparing 7 brain slices with 2 mm thickness, to TTC stain (0.8 g of 2,3,5-triphenyltetrazolium chloride (Sigma) dissolved in 40 ml of saline) were soaked at 37° C. for 15 minutes to stain, the area of infarction and fixed by 10% neutral formalin liquid to prepare specimen. Such specimens were created the image by CCD camera respectively, and analysed according to method of Swanson et al. (J Cereb Blood Flow Metab 10:290-293; 1994). […] Furthermore, function recovering was estimated before and after the operation by rotor rod test that estimates how much they can walk on rotating rotor.

Compound: Cc1ncc2c(c1O)C(c1c(C)nn(-c3ccccc3)c1O)OC2 (stereo not drawn) [compound 68, 1-(5-hydroxy-3-methyl-1-phenyl-1H-pyrazol-4-yl)-6-methyl-1,3-dihydro-furo[3,4-c]pyridin-7-ol]
- pentosidine formation inhibiting effect [1]: inhibits significantly pentosidine formation compared to pyridoxamine
- BUN value ([2]; kidney on third day): improved
- urinary protein ([2]; kidney on third day): improved
- number of glomerular cells ([2]; p<0.0001): significantly suppressed
- cerebral infarction nest ([3]; 2 hours occlusion, 21 hours reperfusion, edaravone 3.0 mg/kg, TM-2002 5.58 mg/kg, twice (5 minutes and 5 hours after occlusion), vs excipient): significantly reduced
- improvement for nervous condition and recovering the function ([3]; compared to excipient single administration): remarkably shown
